Results from publication PMC9822400, “The Lipophilic Purine Nucleoside—Tdp1 Inhibitor—Enhances DNA Damage Induced by Topotecan In Vitro and Potentiates the Antitumor Effect of Topotecan In Vivo” (Molecules, 2022).
Entries after “also recorded” stand apart in the source; their conditions may differ.

What was measured:
[1] = Cell culture cytotoxicity assay (EZ4U colorimetric test); assay type: cell-based; conditions: human, HeLa cells
Text: (§1) Tdp1 inhibitors are intended to be used in therapeutic cocktails to sensitize tumors to the action of anticancer Top1 poisons. […] To assess the toxicity of the compounds, their effect on the survival of the HeLa cell line (human cervical cancer) was studied using the colorimetric test of metabolic activity of cells EZ4U, which reflects the survival of cells in the presence of the studied compounds. The EZ4U assay is based on the ability of living cells to reduce the colorless tetrazolium salt XTT [sodium 3,3′-{1-(phenylamino)-carbonyl-3,4-tetrazolium) -bis(4-methoxy-6-nitro)-benzene sulfonic acid hydrate] to an orange water-soluble formazan product. This method was used to investigate the intrinsic cytotoxicity of promising inhibitors discovered in the course of this work, as well as the toxicity of their combination with Tpc.
(§2) Cytotoxicity of the compounds was examined on human cell lines HeLa using an EZ4U colorimetric test (Biomedica, Vienna, Austria). The HeLa cell line was obtained from the Russian Cell Culture Collection (RCCC) Institute of Cytology RAS, St. Petersburg, Russia. The cells were grown in DMEM/F12 medium (Gibco, Thermo Fisher Scientific, Waltham, MA, USA), with 1x GlutaMAX (Gibco, Thermo Fisher Scientific, Waltham, MA, USA), 50 IU/mL penicillin, 50 μg/mL streptomycin (MP Biomedicals), and in the presence of 10% fetal bovine serum (Biolot, Saint-Petersburg, Russia) in a 5% CO2 atmosphere. Since lipophilic nucleosides are soluble in DMSO, cells were grown in the presence of 1% DMSO in the control wells. After the formation of a 30–50% monolayer, the tested compounds were added to the medium, and the cell culture was monitored for 3 days. The values were normalized to their own control in each case. At least three independent experiments were carried out. The 50% cytotoxic concentration (CC50) was defined as the compound concentration that reduced the cell viability by 50% when compared to the untreated controls. The CC50 value was determined using OriginPro 8.6.0 software (OriginLab, Northampton, MA, USA). The measurements were carried out in three independent experiments.

HeLa cells [2] = assay: Alkaline Comet assay, accumulation of DNA damage; assay type: cell-based; conditions: for Amount of DNA damage (% DNA in tail) in combination with Tpc compared to only Tpc: 10 μM Tpc + compound; for DNA in tail: 1 h; for Effect of the compound alone on the integrity of DNA: compound alone in concentrations up to 1 mM, compared to untreated or 1% DMSO
Text: We studied the effect of Tdp1 inhibitors 5f and 6d on the accumulation of DNA damage by single-cell gel electrophoresis (Comet assay). […] This method has proven to be a simple, fast, and a quite sensitive way to detect DNA damage at the level of a single cell, allowing one to analyze almost any eukaryotic cell culture. Several analysis options allow one to visualize various types of DNA damage: single- and double-stranded breaks and alkaline-labile sites. This allows this method to be widely used in fundamental studies of DNA damage and repair and in testing the genotoxicity of new chemical and pharmaceutical drugs in vitro and in vivo [51, 52]. To study potential drugs, the alkaline version of the method (pH > 13) proposed by Singh and co-authors is widely used. This method allows the detection of all types of DNA damage with high sensitivity. In cells with a large amount of DNA damage, the structural organization and integrity of DNA are disrupted, which leads to its relaxation and/or fragmentation. As a result, cellular DNA in an electric field gives the observed objects the appearance of a “comet”.
Before studying the effect of Tdp1 inhibitors on the accumulation of DNA damage, it was necessary to find out how long the generation of DNA damage by Tpc and their repair take place in HeLa cells. To do this, cell culture was treated with Tpc at 1, 10, and 100 μM concentrations for 30 min, 1, 2, and 3 h and the level of damage to individual cells was monitored by Comet assay. It was shown that Tpc caused the greatest amount of damage after 30 minutes’ treatment. After this time, the repair systems began to correct these lesions and as a result, after 3 h most of them have been eliminated (Figure S9). […] The level of DNA damage at this point was enough to be detected, the data were reproducible, and can be evaluated by the Comet assay. The effect could be enhanced by the tested compounds without leading to cell death. It was important for us to see this enhancement in the presence of our compounds.
HeLa cell culture was grown in a 24-well plate to a concentration of 0.05 million/mL, then treated with the tested compounds and incubated for 1 h. To obtain a cell suspension, the cells were treated with trypsin (30 µL in each well for 5 min at 37 °C), and then 200 µL of PBS + 10% FBS were added to each well.
The resulting cell suspension (50 µL) was mixed with 250 µL of a 1% solution of molten low melting agarose (CertifiedTM LMAgarose; BIO-RAD), 250 µL of this mixture was transferred to the slides pre-coated with a 1% normal melting agarose (Agarose; Helicon), and left for several minutes at 4 °C to solidify. The resulting slides were incubated in a lysing solution (2.5 M NaCl, 100 mM EDTA, 10 mM Tris base, 1% Triton, 5% DMSO, pH 10.0) for an hour at 4 °C. Then the slides were immersed in an electrophoretic buffer (300 mM NaOH, 1 mM EDTA, pH > 13) for 45 min at 4 °C. Electrophoresis was performed at 20 V, 450 mA for 10 min while cooling on ice. After that, the slides were immersed 2 times for 5 min in 0.4 M Tris-HCl pH 7.5 solution for neutralization, washed twice with cold water, and stained with SYBR Green I (excitation maximum at 497 nm, emission maximum at 520 nm; Thermo Fisher Scientific KK).
The images were obtained using a CELENA © S digital microscope (Logos Biosystems, Inc., Annandale, VA, USA) and analyzed with Comet analysis software (Trevigen, Inc., Gaithersburg, MD, USA. In all experiments, 2 slides were evaluated for each sample by counting at least 200 cells on the glass. As a parameter for measuring the level of DNA damage, the median value of the percentage of DNA in the tail was chosen (% Tail DNA = 100 × the intensity of DNA fluorescence in the tail of the comet/the intensity of fluorescence of the total DNA of the comet).

HeLa cells [3] = assay: Effect of compounds on topotecan cytotoxicity (EZ4U test); assay type: cell-based, human; conditions: compound 10 μM in combination with Tpc
Text: as §1
As already mentioned, we expected to increase the efficacy and/or reduce the dosage of Tpc with Tdp1 inhibitors. To do this, we studied the effect of nucleoside derivatives on Tpc cytotoxicity. […] We attribute this to the probable presence of protein targets other than Tdp1 in the cell.
as §2

[4] = compound 10 μM + Topotecan 10 μM
[5] = compound 50 μM + Topotecan 10 μM
[6] = compound 200 μM + Topotecan 10 μM

| Compound | CC50 at 3 days [1] [µM] | Amount of DNA damage (% DNA in tail) in combination with Tpc compared to only Tpc (HeLa cells [2]) | DNA in tail (HeLa cells [2]; [4]) [%] | DNA in tail (HeLa cells [2]; [5]) [%] | DNA in tail (HeLa cells [2]; [6]) [%] | Effect of the compound alone on the integrity of DNA (HeLa cells [2]) | Enhancement of Tpc Cytotoxicity by 10 μM Compounds (HeLa cells [3]) [Times] | Reduction of the topotecan dose required to produce a serious level of DNA damage (HeLa cells [2]; Tpc 1 μM + 6d 5 μM similar to only Tpc 10 μM) [times] |
| --- | --- | --- | --- | --- | --- | --- | --- | --- |
| O[C@@H]1[C@H](O)[C@@H](COC(c2ccccc2)(c2ccccc2)c2ccccc2)O[C@H]1n1cnc2c(NC(c3ccccc3)(c3ccccc3)c3ccccc3)ncnc21 [compound 5f] | > 100 | did not significantly differ | 37±3 | 40±3 | 42±4 | did not affect the integrity of DNA | 1.7 | – |
| O=C(OC[C@H]1O[C@@H](n2cnc3c(Cl)nc(F)nc32)[C@H](OC(=O)c2ccccc2)[C@@H]1OC(=O)c1ccccc1)c1ccccc1 [compound 6c, 2-Fluoro-6-chloro-9-(2,3,5-tri-O-benzoyl-β-D-ribofuranosyl)purine] | 35 ± 20 | – | – | – | – | – | 6.5 | – |
| O=C(OC[C@H]1O[C@@H](n2cnc3c(Cl)nc(Cl)nc32)[C@H](OC(=O)c2ccccc2)[C@@H]1OC(=O)c1ccccc1)c1ccccc1 [compound 6d, 2,6-dichloro-9-(2,3,5-tri-O-benzoyl-β-D-ribofuranosyl)purine] | 33 ± 15 | increased the amount of DNA damage | 50±2 | 65±6 | 71±4 | did not affect the integrity of DNA; also recorded: does not cause DNA damage by itself | 4.8 | 10 |
